The record followed here is patent publication EP4755892A1, “KINESIN KIF18A INHIBITOR AND USE THEREOF” (Shanghai Apeiron Therapeutics Company Limited, priority 2023, dated 2025).

Experiment [1] deals with T1, Human KIF18A (amino acid sequence 1-417) (Homo sapiens, UniProt Q8NI77).
T1 construct: purchased Viva Biotech (Shanghai) Ltd
T1 sequence (Q8NI77 1-417): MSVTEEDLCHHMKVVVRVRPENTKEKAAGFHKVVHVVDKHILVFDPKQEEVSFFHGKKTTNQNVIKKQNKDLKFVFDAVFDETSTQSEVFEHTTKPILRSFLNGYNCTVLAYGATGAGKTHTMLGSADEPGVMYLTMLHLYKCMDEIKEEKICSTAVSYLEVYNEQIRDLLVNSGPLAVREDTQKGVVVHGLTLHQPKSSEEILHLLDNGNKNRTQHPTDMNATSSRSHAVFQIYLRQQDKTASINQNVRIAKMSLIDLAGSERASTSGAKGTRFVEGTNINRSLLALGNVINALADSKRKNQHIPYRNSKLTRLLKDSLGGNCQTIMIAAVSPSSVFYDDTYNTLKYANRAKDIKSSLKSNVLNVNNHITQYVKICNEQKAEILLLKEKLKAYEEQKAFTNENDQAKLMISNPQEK
Briefly: Enzymatic Activity Test (ADP-Glo, microtubule-stimulated KIF18A ATPase). Particulars: 60 µg/mL microtubules, 25 µM ATP, 2.5 nM KIF18A protein, 120 min at ambient temperature, chemiluminescence; read-out: KIF 18A IC50. Format: biochemical. The procedure: Assay 1: Enzymatic Activity Test
Materials: Human KIF18A (amino acid sequence 1-417) was purchased from Viva Biotech (Shanghai) Ltd.; the ADP-Glo™ protein kinase kit was acquired from Promega, USA; tubulin was sourced from Cytoskeleton, USA; and the 384-well assay plate and Envision multifunctional microplate reader were obtained from PerkinElmer, USA.
Enzymatic Activity Test: The compound powder was dissolved in DMSO to prepare a stock solution of 10 mM. Then gradient dilution was performed for the compounds in the microplate to achieve a final concentration of 0-10 µM. Then, 2.5 µL each of tubulin, compound, ATP, and KIF18A protein were added to the microplate in sequence for reaction at ambient temperature for 120 min. The final concentrations in the enzyme reaction were 60 µg/mL for microtubules, 25 µM for ATP, and 2.5 nM for KIF18A protein. After the enzyme reaction, 10 µL of ADP-GLO reaction reagent was added to each well and incubated at room temperature for 30 min. After that, 20 µL of detection reagent was added to each well and incubated at room temperature for 30 min in the dark. Finally, chemiluminescence detection was performed using the PerkinElmer Envision.
A general note: ADP-Glo turns the ADP formed in a reaction into a luminescent signal.

The subject of another experiment is OVCAR3 cells. Briefly: Cell Proliferation Activity Test (CyQUANT Direct), OVCAR3. The experiment is classed as cell-based. The conditions noted are these: compound 0-10 µM, 3 days, 0.2% DMSO, CyQUANT fluorescence, read-out: OVCAR-3 _IC50_nM. The procedure:
Assay 2: Cell Proliferation Activity Test
Materials and Cells: OVCAR3 cells were purchased from Nanjing Cobioer Biosciences Co., Ltd. RPMI-1640 medium, fetal bovine serum, and the CyQUANT Direct Cell Proliferation Assay kit were purchased from Thermo Fisher Scientific, USA; 96-well cell culture plates were sourced from Coming, USA.
Cell Culture: OVCAR3 cells were cultured with RPMI-1640 medium containing 10% fetal bovine serum and incubated in a 5% CO2 incubator at 37°C. Only cells in the logarithmic growth phase could be used for the test.
Cell Proliferation Activity Test:
OVCAR3 cells were inoculated into a 96-well cell culture plate at 90 µL per well and incubated overnight in a 5% CO2 incubator at 37°C. The compound powder was dissolved in DMSO to prepare a stock solution of 10 mM. Then gradient dilution was performed for the compounds in the microplate to achieve a final concentration of 0-10 µM. 10 µL of cell culture medium containing compounds was added to each well to make the final DMSO content 0.2%. The cell plates were incubated in a 5% CO2 incubator at 37°C for 3 days. 100 µL of CyQUANT detection reagent was added to each well, reacted at 37°C for 60 min, and fluorescence detection was performed using the PerkinElmer Envision.

Another experiment relates to HT29 cells. Briefly: CyQuant Cell Proliferation Activity Test, HT29. The experiment is classed as cell-based. Particulars: HT29 cells 2000 per well, initial concentration 3000 nM, 3-fold dilution, 3 days, 0.2% DMSO, read-out: HT29_IC50 _nM. As to the method:
Assay 3: CyQuant Cell Proliferation Activity Test
Materials and Cells: HT29 cells were purchased from Nanjing Cobioer Biosciences Co., Ltd.; RPMI-1640 medium, fetal bovine serum, Trypsin-EDTA (0.25%), 96-well plates, and CyQuant reagents were purchased from ThermoFisher (USA); DMSO was purchased from SIGMA (USA).
Cell Culture: HT29 cells were cultured with RPMI-1640 containing 10% fetal bovine serum under the condition of 37°C and 5% CO2. Only cells in the logarithmic growth phase could be used for the test.
Cell Proliferation Activity Test: CyQuant reagent was used to detect the proliferation inhibitory activity of compounds on HT29 cells. The cell density was adjusted, and 100 µL per well was inoculated into a 96-well plate (HT29 at 2000 cells per well), then incubated overnight at 37°C and 5% CO2. Add compounds of various target concentrations (initial concentration of 3000 nM, 3-fold dilution, 9 concentration gradients), and make the DMSO content 0.2%. The cell plate was incubated at 37°C in 5% CO2 for 3 days. CyQuant reagent was added and incubated for 1 h. The plates were read by Envision, and IC50 was calculated using XLFIT.

Where two headings read alike, the source gives them in different places. A value given as a limit tells only on which side of the number the result lay.

Take `Cc1cc2nc(n1)N1CCCC(CCCC3CCN(CC3)c3cc(NS(=O)(=O)CCO)ccc3C(=O)N2)C1` (stereo not drawn) [Example 3B, 2-Hydroxy-N-((1^3S)-2^6-methyl-4-oxo-3-aza-2(2,4)-pyrimidin-1(1,3),6(1,4)-dipiperidin-5(1,2)-benzeneheterocyclononane-5^4-yl)ethane-1-sulfonamide]: the IC50 in experiment [1] was determined as 67 nM; in the experiment on OVCAR3 cells, 36 nM; in the experiment with HT29 cells it was 43 nM.

As to `Cc1cc2nc(n1)N1CCCC(C=CC3CCN(CC3)c3cc(NS(=O)(=O)CCO)ccc3C(=O)N2)C1` (stereo not drawn) [Example 4, 2-Hydroxy-N-(1^1-methyl-7-oxo-8-aza-1(2,4)-pyrimidin-2(1,3),5(4,1)-dipiperidin-6 (1,2)-benzeneheterocyclooct-3-en-6^5-yl)ethane-1-sulfonamide], the IC50 in experiment [1] was 736 nM; in the experiment on OVCAR3 cells (Homo sapiens, OVCAR-3, 72 h), 1660 nM; in the experiment on HT29 cells (Homo sapiens, HT-29, 72 h) it was greater than 3000 nM.

With `Cc1cc2nc(n1)N1CCCC(CCC3CCN(CC3)c3cc(NS(=O)(=O)CCO)ccc3C(=O)N2)C1` (stereo not drawn) [Example 5, 2-Hydroxy-N-(1^1-methyl-7-oxo-8-aza-1(2,4)-pyrimidin-2(1,3),5(4,1)-dipiperidin-6 (1,2)-benzeneheterocyclooct-6^5-yl)ethane-1-sulfonamide], the IC50 was 38 nM in experiment [1]; 122 nM with OVCAR3 cells (Homo sapiens, OVCAR-3, 72 h); 132 nM with HT29 cells (Homo sapiens, HT-29, 72 h).

`Cc1cc2nc(n1)N1CCCC(C=CCCC3CCN(CC3)c3cc(NS(=O)(=O)CCO)ccc3C(=O)N2)C1` (stereo not drawn) [Example 6, 2-Hydroxy-N-(2^1-methyl-4-oxo-3-aza-2(2,4)-pyrimidin-1(1,3),6(1,4)-dipiperidin-5 (1,2)-benzenecyclodec-9-en-5^4-yl)ethane-1-sulfonamide]: the IC50 amounted to 89 nM in experiment [1]; 52 nM in the experiment on OVCAR3 cells (Homo sapiens, OVCAR-3, 72 h); 64 nM in the experiment with HT29 cells (Homo sapiens, HT-29, 72 h).

Take `Cc1cc2nc(n1)N1CCCC(CCCCC3CCN(CC3)c3cc(NS(=O)(=O)CCO)ccc3C(=O)N2)C1` (stereo not drawn) [Example 7, 2-Hydroxy-N-(2^6-methyl-4-oxo-3-aza-2(2,4)-pyrimidin-1(1,3),6(1,4)-dipiperidin-5 (1,2)-benzenecyclodecane-5^4-yl)ethane-1-sulfonamide]: the IC50 in experiment [1] was found to be 197 nM; in the experiment with OVCAR3 cells (Homo sapiens, OVCAR-3, 72 h) it was 242 nM; in the experiment with HT29 cells (Homo sapiens, HT-29, 72 h) it was 255 nM.

Consider `Cc1cc2nc(n1)N1CCCC(C=CCC3CCCN(C3)c3cc(NS(=O)(=O)CCO)ccc3C(=O)N2)C1` (stereo not drawn) [Example 10, 2-Hydroxy-N-(2^6-methyl-4-oxo-3-aza-2(2,4)-pyrimidin-1,6(1,3)-dipiperidin-5(1,2) -benzeneheterocyclononane-8-en-5^4-yl)ethane-1-sulfonamide], for which the IC50 came out at 200 nM in experiment [1]; 136 nM in the experiment on OVCAR3 cells (Homo sapiens, OVCAR-3, 72 h); 172 nM in the experiment on HT29 cells (Homo sapiens, HT-29, 72 h).

As for `O=C1Nc2cccc(c2)S(=O)(=O)NCC=CCCC2CCN(CC2)c2cc(NS(=O)(=O)CCO)ccc21` [Example 12, N-(6,6-dioxo-3-oxo-6-thia-4,7-diaza-1(1,4)-piperidin-2(1,2),5(1,3)-diphenylheterocyclododec-9-ene-2^5-yl)-2-hydroxy-1-ethanesulfonamide], the IC50 in experiment [1] amounted to 28 nM; with OVCAR3 cells (Homo sapiens, OVCAR-3, 72 h) it was 124 nM; in the experiment with HT29 cells (Homo sapiens, HT-29, 72 h), 251 nM.

As for `O=C1Nc2cccc(c2)S(=O)(=O)NCCCCCC2CCN(CC2)c2cc(NS(=O)(=O)CCO)ccc21` [Example 13, N-(6,6-dioxo-3-oxo-6-thia-4,7-diaza-1(1,4)-piperidin-2(1,2),5(1,3)-diphenylheterocyclododecane-2^5-yl)-2-hydroxy-1-ethanesulfonamide], the IC50 in experiment [1] was determined as 23 nM; in the experiment with OVCAR3 cells (Homo sapiens, OVCAR-3, 72 h) it was 77 nM; in the experiment on HT29 cells (Homo sapiens, HT-29, 72 h), 136 nM.

With `O=C1Nc2cccc(c2)S(=O)(=O)NCCCCC2CCN(CC2)c2cc(NS(=O)(=O)CCO)ccc21` [Example 14, N-(6,6-dioxo-3-oxo-6-thia-1(1,4)-piperidin-2(1,2),5(1,3)-diphenylheterocycloundecane-2^5-yl)-2-hydroxy-1-ethanesulfonamide], the IC50 in experiment [1] was 21 nM; in the experiment with OVCAR3 cells (Homo sapiens, OVCAR-3, 72 h), 85 nM; with HT29 cells (Homo sapiens, HT-29, 72 h) it was 152 nM.

For the compound `O=C1Nc2cccc(c2)S(=O)(=O)NCC=CC2CCN(CC2)c2cc(NS(=O)(=O)CCO)ccc21` [Example 15, (E)-N-(6,6-dioxo-3-oxo-6-thia-4,7-diaza-1(1,4)-piperidin-2(1,2),5(1,3)-diphenylheterocyclodec-9-en-2^5-yl)-2-hydroxy-1-ethanesulfonamide], the IC50 in experiment [1] is 275 nM; with OVCAR3 cells (Homo sapiens, OVCAR-3, 72 h) it was greater than 3000 nM; in the experiment with HT29 cells (Homo sapiens, HT-29, 72 h), greater than 3000 nM.

With `O=C1Nc2cccc(c2)S(=O)(=O)NCCCC2CCN(CC2)c2cc(NS(=O)(=O)CCO)ccc21` [Example 16, N-(6,6-dioxo-3-oxo-6-thia-4,7-diaza-1(1,4)-piperidin-2(1,2),5(1,3)-diphenylheterocyclodecane-2^5-yl)-2-hydroxy-1-ethanesulfonamide], the IC50 in experiment [1] was 588 nM; with OVCAR3 cells (Homo sapiens, OVCAR-3, 72 h) it was greater than 3000 nM; in the experiment with HT29 cells (Homo sapiens, HT-29, 72 h), greater than 3000 nM.

In the case of `O=C1Nc2cccc(c2)S(=O)(=O)N2CCN(CCC3CCN(CC3)c3cc(NS(=O)(=O)CCO)ccc31)CC2` [Example 17, N-(6,6-dioxo-9-oxo-6-thia-8-aza-5(1,4)-piperazin-2(1,4)-piperidin-1(1,2),7(1,3)-diphenylheterocyclononane-1^3-yl)-2-hydroxyethane-1-sulfonamide], the IC50 in experiment [1] is 605 nM; in the experiment on OVCAR3 cells (Homo sapiens, OVCAR-3, 72 h), greater than 3000 nM; in the experiment with HT29 cells (Homo sapiens, HT-29, 72 h) it was greater than 3000 nM.

Regarding `Cc1cc2nc(n1)N1CCC(F)(F)C(C=CCC3CCN(CC3)c3cc(NS(=O)(=O)CCO)ccc3C(=O)N2)C1` (stereo not drawn) [Example 18, N-(1^4,1^4-difluoro-2^6-methyl-4-oxo-3-aza-2(2,4)-pyrimidin-1(1,3),6(1,4)-dipiperidin-5(1,2)-benzeneheterocyclonon-8-en-5^4-yl)-2-hydroxyethane-1-sulfonamide], the values for the IC50 (in experiment [1]; in the experiment on OVCAR3 cells; with HT29 cells) were 94 nM, 31 nM and 34 nM, respectively.

On to `Cc1cc2nc(n1)N1CCC(F)(F)C(C=CCC3CCN(CC3)c3cc(NS(=O)(=O)CCO)ccc3C(=O)N2)C1` (stereo not drawn) [Example 18A, N-((1^3S,E)-1^4,1^4-difluoro-2^1-methyl-4-oxo-3-aza-2(2,4)-pyrimidin-1(1,3),6(1,4)-dipiperidin-5(1,2)-benzeneheterocyclononane-8-en-5^4-yl)-2-hydroxyethane-1-sulfonamide], for which the IC50 (in experiment [1]; in the experiment on OVCAR3 cells; with HT29 cells) was greater than 3000 nM in each case.
